Laboratory results published in article PMC6944487, “Tandem Molecular Self-Assembly Selectively Inhibits Lung Cancer Cells by Inducing Endoplasmic Reticulum Stress” (Research, 2019).
pIC50: −log10 of the molar value. Where two headings read alike, the source gives them in different places. One block for each molecule: values may come before it. *1 amine or outer side, *2 acyl side, *3 side chain or, on linkers, in order; H or OH if unused. Where a SMILES comes first, the peptide text is derived from it. [ ]: non-standard residue; d: D form. The star is where a group is joined. X1 = O=C(c1ccc(/N=N/c2ccc(N[*:1])cc2)cc1)[*:2]; pY = N[C@@H](Cc1ccc(OP(=O)(O)O)cc1)C(=O)O; NBD = O=[N+]([O-])c1ccc(*)c2nonc12; βAla = NCCC(=O)O

Tests used:
[1] = Critical aggregation concentration (CAC) by dynamic light scattering; format: physicochemical; conditions: DLS, light scattering intensity per concentration, PBS pH 7.4
Experimental: The synthesized compounds were characterized by 1H NMR (Bruker ARX-400) using DMSO-d6 as the solvent. HPLC was conducted at the LUMTECH HPLC (Germany) system using a C18 RP column with methanol (0.05% of TFA) and water (0.05% of TFA) as the eluents. LC-MS was conducted at the LCMS-20AD (Shimadzu) system. HR-MS was performed at the Agilent 6520 Q-TOF LC/MS using ESI-L low concentration tuning mix (Lot No. LB60116 from the Agilent Tech.). CMC values and size distribution of micelles were determined by dynamic light scattering (DLS); this experiment was conducted on a laser light scattering spectrometer (BI-200SM, Brookhaven, USA). The morphology conversion of the peptide derivatives was measured by TEM performed on a Tecnai G2 F20 system, operating at 200 kV. Cellular uptake and drug tracking images were taken by a confocal laser scanning microscopy (Leica TSC SP8, Germany).
The CAC value of compounds 1, 2, 4, and 5 in PBS solution (pH = 7.4) was determined by dynamic light scattering (DLS), and the light scattering intensity was recorded for each concentration analyzed.

[2] = tested on: different cell lines; test: Cell uptakes; format: cell-based; conditions: 200 μM, 6 h, cell lysate OD 488 nm, n = 3
Experimental: Cells were incubated in 12-well plates at a density of 10 × 10^6 cells. The cell cultural medium containing 200 μM of each compound was added to the cells, and the upper medium was removed at 6 h time point. Cells were washed for three times with PBS or DMEM. After being treated with cell lysis solution (1 mL per well contained 200 μL DMSO) for 15 min, the solutions were centrifuged at […] for 10 min. The amount of compound in the upper solution was determined by a microplate reader at OD of 488 nm (Bio-Rad Mark^TM, America).

[3] = tested on: PC-3 cells; test: Cell proliferation (SRB) assay, PC-3; format: cell-based; conditions: 48 h incubation, n = 3
Experimental: (§1) PC-3, MCF-7, HeLa, U87, HPAEpiC, and A549 cells were purchased from the Type Culture Collection of the Chinese Academy of Sciences (Shanghai, China); PC-3, MCF-7, HeLa, U87, and A549 cells were cultured in Dulbecco's Modified Eagle's medium (DMEM) supplemented with 10% v/v fetal bovine serum (FBS), 100 U/mL penicillin, and 100 μg/mL streptomycin; HPAEpiC cells were cultured in RPMI 1640 Medium supplemented with 10% v/v fetal bovine serum, 100 U/mL penicillin, and 100 μg/mL streptomycin. All cells were at 37°C in a humidified atmosphere of 5% CO2.
(§2) In this experiment, all cell lines were incubated in a 96-well plate at a density of about 6000. According to previous method, cell was fixed by cold 10% trichloroacetic acid solution at 4°C overnight after incubated with compound for 48 h. Then, discarding the fixative solution and washed by water for three times, put the 96-well plate in a 37°C oven to dry. Next, 0.4% SRB solution was used to stain cell for 20 min at room temperature to form protein-bound dry, then using 1% AcOH solution to clean excessive SRB. Put the 96-well plate in a 37°C oven to dry and add 10 mM Tris base solution of 100 μL every well to solubilize the protein-bound dry for 30 min. Measure the OD at 570 nm in a microplate reader.

[4] = Body weight of treated tumor-bearing mice; format: in vivo, BALB/c nude mice; conditions: 5 mg/kg i.v. once every three days
Experimental: (§3) A549 cells were maintained in our lab. The BALB/c nude (6 weeks old, female) mice purchased from Beijing Vital River Laboratory Animal Technology Co., Ltd. were used. 5 × 10^7 A549 cells (100 μL) mixed with growth factor-reduced Matrigel (50 μL, BD Biosciences) were subcutaneously injected into the right flank of each mouse. The drug treatment was started when tumor volume reached 80 mm^3; the tumor volume was calculated by the formula: length∗width^2/2. Mice (n = 5) received compounds 1, 2, 4, and 5 (5.0 mg/kg) in PBS by i.v. injection, whereas the control group (n = 5) received PBS only. The compound was injected every three days. The mice were weighed, and tumors were measured every two days during the treatment period.

[5] = tested on: normal human alveolar epithelial cells (HPAEpiC); test: Cell proliferation (SRB) assay, HPAEpiC; format: cell-based; conditions: 48 h incubation, n = 3
Experimental: as §1, §2

[6] = tested on: A549 cells; test: Cell proliferation (SRB) assay, A549; format: cell-based, human
Experimental: as §1, §2

[7] = tested on: A549 cells; test: JC-1 staining, mitochondrial membrane potential; format: cell-based, human; conditions: 200 μM, 4 h time point
Experimental: Mitochondrial membrane potential was assessed by staining with JC-1 dye (5,50,6,60-tetrachloro-1,10,3,30-tetraethylbenzimidazol-carbocyanine iodide) (abcam). 1 × 10^4 A549 cells per well, seeded in 96-well plates, were treated with Comp.1 (200 μM) for different time points and FCCP (100 μM) for 4 h. After treatment, a medium was removed and the cells were then incubated in 100 μL PBS containing JC-1 dye (20 μM) for 15 min at 37°C and subsequently washed with PBS for three times. The red fluorescence (λexc. = 543 nm, emission = 570‐620 nm) was determined by a microplate reader (BioTek).
A549 cells were seeded in CLSM cultural dish at a density of 1 × 10^5 cells. After incubation for 12 h, a medium was removed. The cells were then incubated with Comp. 1 (200 μM) at different time points. The cells also were incubated with FCCP (100 μM) for 4 h as the positive control group. Then, removing medium, JC-1 staining kit (20 μM) was incubated with A549 cells for 15 min. The medium was removed, and the cells were washed by PBS three times. 1 mL of PBS was added for imaging by live cell imaging systems (green channel (depolarization) λexc. = 488 nm, emission = 500 − 540 nm; red channel (hyperpolarization) λexc. = 543 nm, emission = 570‐620 nm, all test conditions are consistent).

[8] = tested on: MCF-7 cells; test: Cell proliferation (SRB) assay, MCF-7; format: cell-based; conditions: 48 h incubation, n = 3
Experimental: as §1, §2

[9] = tested on: A549 xenograft tumors; test: In vivo antitumor assay, A549 xenograft; set-up: species or system BALB/c nude mice; conditions: 5 mg/kg i.v. once every three days, tumors at day 15
Experimental: as §3
The mice were sacrificed to obtain tumor tissues; tumor tissues were fixed by 4% formalin over 48 h, embedded in paraffin, cut into 5-6 μm sections for H&E staining, and evaluated using light microscopy as previously described method.

[10] = tested on: A549 cells; test: Mitochondrial colocalization / cytoplasmic vacuolization, ER stress (CLSM, Mito-Tracker); format: cell-based, human; conditions: 200 μM, 10-12 h
Experimental: (§4) A549 cells was seeded in CLSM cultural dish at a density of 1 × 10^5 cells. After incubation for 12 h, a medium was removed. The cells were then incubated with Comp. 1, 2, 4, or 5 (200 μM) for 1 or 4 h (lysosome colocation). Cells were incubated with Comp. 1 (200 μM) for 8, 10, and 12 h (mitochondrial colocation). Next, the medium containing different compound was removed and washed by PBS for three times, and lysosome tracker (1×) was incubated with cells for 45 min. The medium was removed and the cells were washed by PBS three times. 1-2 mL of DMEM was added for imaging by live cell imaging systems (λexc. = 488 nm, emission = 510‐560 nm; λexc. = 543 nm, emission = 650‐750 nm). Mito-Tracker (1×) was incubated with cells for 30 min. The medium was then removed and washed by PBS three times. 1-2 mL of DMEM was added for imaging by live cell imaging systems (λexc. = 488 nm, emission = 510‐560 nm; λexc. = 633 nm, emission = 650‐750 nm, all test conditions are consistent).

[11] = Appearance of solution in PBS; format: physicochemical; conditions: 200 μM (0.03 wt%) in PBS pH 7.4
Experimental: (§5) The Comp. […] 1. […] We thereafter added the enzyme ALP (1 U·mL^−1) to the PBS solution of Comp. 1 at 37°C, and the solution remained clear after 12 h (Figure 2(a)). […] 1 had been converted to Comp. 2 within 6 h (Figures 2(a) and ). Accordingly, the nanofibers with a diameter of 6–10 nm formed in the resulting solution of Comp. 2 (Figure 2(c)). With the addition of rat liver microsomes (226 μg·mL^−1) and NADPH (50 equiv.) to trigger the conversion from azobenzene to aniline, a yellowish precipitate was clearly observed within 24 h (Figure 2(b)). […] 2 had been converted into Comp. 3 within 24 h (Figures 2(b) and ). […] 2 and Comp. 3. […] The above observations strongly indicated the tandem molecular self-assembly behavior of Comp. 1 with the catalysis by ALP and reductase.
(§6) […] of Comp. 1 was dissolved in 500 μL of PBS (pH = 7.4) as a stock solution (PBS was bubbled by Argon for 30 min in advance). The concentration of the stock solution was 200 μM. Na2CO3 (1 M) was added to the above solution to adjust the final pH to 7.4. The solution was incubated at 37°C. The alkali phosphatase (1 U/mL) was then added to the solution for 12 hours at 37°C to trigger the first step of self-assembly. After that, rat liver microsomes (226 μg/mL) and NADPH (50 equiv.) were added for 24 hours at 37°C to trigger the second step of self-assembly.

[12] = tested on: T1, alkaline phosphatase (ALP); test: Conversion by alkaline phosphatase (LC-MS); format: in vitro ADME; conditions: alkaline phosphatase (ALP) in PBS; ALP 1 U/mL, 200 μM in PBS pH 7.4, 37°C, within 6 h, LC-MS trace; read-out: Comp. 1 converted to Comp. 2
T1 construct: purchased Takara D2250
Experimental: as §5, §6

[13] = tested on: A549 cells; test: Lysosome colocalization (CLSM, Lyso-Tracker); format: cell-based, human; conditions: 200 μM; for lysosomal escape: 4 h, Lyso-Tracker; for mean fluorescence intensity in cells (versus cells treated with Comp. 4 and Comp. 5): A549 cells
Experimental: as §4

[14] = tested on: U87 cells; test: Cell proliferation (SRB) assay, U87; format: cell-based; conditions: 48 h incubation, n = 3
Experimental: as §1, §2

[15] = tested on: HeLa cells; test: Cell proliferation (SRB) assay, HeLa; format: cell-based; conditions: 48 h incubation, n = 3
Experimental: as §1, §2

[16] = tested on: reductase (rat liver microsomes); test: in vitro; format: in vitro ADME; conditions: pH 7.4
Experimental: as §5, §6

[17] = SRB, 48 h incubation, mean ± SEM n = 3, read-out: IC50 in A549 cells

SMILES: N=C(N)NCCC[C@H](NC(=O)[C@H](CCC(=O)O)NC(=O)c1ccc(/N=N/c2ccc(NC(=O)CNC(=O)[C@H](Cc3ccc(OP(=O)(O)O)cc3)NC(=O)[C@H](Cc3ccccc3)NC(=O)[C@H](Cc3ccccc3)NC(=O)CNC(=O)CCNc3ccc([N+](=O)[O-])c4nonc34)cc2)cc1)C(=O)NCC(=O)N[C@@H](CC(=O)O)C(=O)O [Comp. 1, NBD-GFFpYG-N=N-ERGD] ({NBD-βAla}-GFF[pY]G[X1]ERGD-OH)
critical aggregation concentration (CAC) [1]: 263.6 µM
cellular uptake in different cells [2]: no significant differences
pIC50 [3]: ~4.69
body weight change [4]: did not exhibit a loss of body weight
pIC50 [5]: ~4.40
pIC50 [6, 17]: ~5.60
mitochondrial membrane potential (JC-1) [7]: caused mitochondrial depolarization
pIC50 [8]: ~4.80
H&E histology of tumor tissue [9]: severely apoptotic
ER stress / cytoplasmic vacuolization [10]: massive cytoplasmic vacuolization
appearance of solution [11]: clear solution
metabolised at 6 h, 200 μM [12]: > 95%
lysosomal escape [13]: efficiently escaped from the late endosomes/lysosomes
mean fluorescence intensity in cells (versus cells treated with Comp. 4 and Comp. 5) [13]: significantly higher
pIC50 [14]: ~5.29
pIC50 [15]: ~4.13

SMILES: N=C(N)NCCC[C@H](NC(=O)[C@H](CCC(=O)O)NC(=O)c1ccc(/N=N/c2ccc(NC(=O)CNC(=O)[C@H](Cc3ccc(O)cc3)NC(=O)[C@H](Cc3ccccc3)NC(=O)[C@H](Cc3ccccc3)NC(=O)CNC(=O)CCNc3ccc([N+](=O)[O-])c4nonc34)cc2)cc1)C(=O)NCC(=O)N[C@@H](CC(=O)O)C(=O)O [Comp. 2, NBD-GFFYG-N=N-ERGD] ({NBD-βAla}-GFFYG[X1]ERGD-OH)
metabolised at 24 h, 200 μM [16]: > 70%
pIC50 [6, 17]: 4.08
H&E histology of tumor tissue [9]: underwent apoptosis
ER stress / cytoplasmic vacuolization [10]: only caused slight ER stress
lysosomal escape [13]: small fraction of lysosomal escape
mean fluorescence intensity in cells (versus cells treated with Comp. 4 and Comp. 5) [13]: significantly higher

SMILES: N=C(N)NCCC[C@H](NC(=O)[C@H](CCC(=O)O)NC(=O)CNC(=O)[C@H](Cc1ccc(OP(=O)(O)O)cc1)NC(=O)[C@H](Cc1ccccc1)NC(=O)[C@H](Cc1ccccc1)NC(=O)CNC(=O)CCNc1ccc([N+](=O)[O-])c2nonc12)C(=O)NCC(=O)N[C@@H](CC(=O)O)C(=O)O [Comp. 4, NBD-GFFpYGERGD] ({NBD-βAla}-GFF[pY]GERGD-OH)
pIC50 [6, 17]: < 3.30

pIC50 ([6]; 48 h): < 3.30
SMILES: N=C(N)NCCC[C@H](NC(=O)[C@H](CCC(=O)O)NC(=O)CNC(=O)[C@H](Cc1ccc(O)cc1)NC(=O)[C@H](Cc1ccccc1)NC(=O)[C@H](Cc1ccccc1)NC(=O)CNC(=O)CCNc1ccc([N+](=O)[O-])c2nonc12)C(=O)NCC(=O)N[C@@H](CC(=O)O)C(=O)O [Comp. 5, NBD-GFFYGERGD] ({NBD-βAla}-GFFYGERGD-OH)
